According to patent publication US20100311694A1, “Set of Geldanamycin Derivatives and Their Preparation Methods” (Institute of Medicinal Biotechnology, Chinese Academy of …, priority 2008, published 2010):

How the values were obtained:
[1] = tested on: HBV; assay: Anti-HBV activity (HBV DNA in cell lysate, spot hybridization); assay type: cell-based; details: HBV DNA content of the cells, reagent solution changed every 4 days
Description: Test Procedure for Anti-HBV Activity
Using cell culture method, the preparation of the cells to be tested (100,000 cell's/mL) is inoculated into cell culture plate in 100 μl each well and the cells are cultured 24 h at 37° C. in 5% CO2. Tests are carried out when the cells grow into a monolayer. The target compounds as well as the controls are prepared into a series of solutions of appropriate concentrations using the culture medium and are added into 96 well culture plate respectively in 4 wells per one concentration. Then the reagent solution in each well is changed into the fresh reagent solution with the same concentration every 4 days. A cell control without reagent treatment is simultaneously is set up. The observation index is based upon the pathological changes of the cells by observing the degrees of the pathological changes of the cells under microscope every 8 days. […] Cell control without drug treatment is simultaneously is set up. The reagent solution or control medium in each well is changed into the fresh reagent solution or fresh medium respectively every 4 days. After cytolysis of the cells, HBV DNA is extracted from the cell lysis solution according to the molecular cloning technical procedure. The spots of different samples are hybridized and the A values of different hybridized spots are measured using autoradiograghic technique. The HBV DNA contents in the cell control as well as in the drug treated samples are calculated using the regression equations obtained from the standard curves to obtain half effective concentration values, the results are shown in Table 1.

[2] = tested on: HIV-1; assay: Anti HIV-1 activity (HIV-1 P24 antigen in cell cultures); assay type: cell-based; details: 4 days after addition of the reagents
Description: Test Procedure of Anti HIV-1 Activity
8 reagent solutions of different diluted concentrations and positive control solutions are added into cell cultures in 96 well plate respectively. The sample of each diluted solutions is made duplicately and a control cell sample is also is set up. 100 μl of cell sample at a concentration of 2×10^5cells/ml is inoculated into the wells containing reagent in the plate. The cells samples are cultured in a saturated humidity culture chamber (at a 5% CO2 atmosphere) at 37° C. The pathological changes of cells are observed daily.

| Structure (SMILES) | Activity of HBV inhibition IC50 [1] | Activity of HIV inhibition IC50 [2] | Activity of HBV inhibition IC50, μg/ml [1] |
| --- | --- | --- | --- |
| COC1C=CC=C(C)C(=O)NC2=CC(=O)C(NC3CCN(c4ccncc4)CC3)=C(CC(C)CC(OC)C(O)C(C)C=C(C)C1OC(N)=O)C2=O (stereo not shown) [GM-W38] | 0.64 µg/mL | 1.59 µg/mL |  |
| COC1C=CC=C(C)C(=O)NC2=CC(=O)C(NCc3cccnc3)=C(CC(C)CC(OC)C(O)C(C)C=C(C)C1OC(N)=O)C2=O (stereo not shown) [GM-W20] | 6.89 µg/mL | 26.42 µg/mL |  |
| COC(CNC1=C2CC(C)CC(OC)C(O)C(C)C=C(C)C(OC(N)=O)C(OC)C=CC=C(C)C(=O)NC(=CC1=O)C2=O)OC (stereo not shown) [GM-W12] | 3.2 µg/mL | 0.46 µg/mL |  |
| COC1C=CC=C(C)C(=O)NC2=CC(=O)C(NCC(O)CO)=C(CC(C)CC(OC)C(O)C(C)C=C(C)C1OC(N)=O)C2=O (stereo not shown) [GM-W74] | 8.9 µg/mL | 0.47 µg/mL |  |
| COc1cccc(CCNC2=C3CC(C)CC(OC)C(O)C(C)C=C(C)C(OC(N)=O)C(OC)C=CC=C(C)C(=O)NC(=CC2=O)C3=O)c1 (stereo not shown) [GM-W87] | 0.064 µg/mL | 0.39 µg/mL |  |
| COC1C=CC=C(C)C(=O)NC2=C(NCC3CCCO3)C(=O)C(NCC3CCCO3)=C(CC(C)CC(OC)C(O)C(C)C=C(C)C1OC(N)=O)C2=O [THFM + 2, 17,19-di-(S)-tetrahydrofurfuryl amino-17-demethoxy geldanamycin] | 0.10 µg/mL | 0.18 µg/mL |  |
| COC1C=CC=C(C)C(=O)NC2=CC(=O)C(NCC3CCCCN3)=C(CC(C)CC(OC)C(O)C(C)C=C(C)C1OC(N)=O)C2=O (stereo not shown) [GM-W22] | 3.2 µg/mL | 1.37 µg/mL |  |
| COC1C=CC=C(C)C(=O)NC2=CC(=O)C(NCc3cncc(C)n3)=C(CC(C)CC(OC)C(O)C(C)C=C(C)C1OC(N)=O)C2=O (stereo not shown) [GM-W2] | 8.0 µg/mL | 19.6 µg/mL |  |
| COC1C=CC=C(C)C(=O)NC2=CC(=O)C(NCCN3CCCC3)=C(CC(C)CC(OC)C(O)C(C)C=C(C)C1OC(N)=O)C2=O (stereo not shown) [GM-W52] | 0.32 µg/mL | 0.65 µg/mL |  |
| COC1C=CC=C(C)C(=O)NC2=CC(=O)C(NCc3cccs3)=C(CC(C)CC(OC)C(O)C(C)C=C(C)C1OC(N)=O)C2=O (stereo not shown) [GM-W50] | 0.64 µg/mL | 1.57 µg/mL |  |
| COC1C=CC=C(C)C(=O)NC2=CC(=O)C(NCCN3CCCCC3)=C(CC(C)CC(OC)C(O)C(C)C=C(C)C1OC(N)=O)C2=O (stereo not shown) [GM-AEPD, 17-(2′-(1″-azacyclohexyl-1″-)ethylamino)-17-demethoxy geldanamycin] | 0.08 µg/mL | <0.01 µg/mL |  |
| COC1C=CC=C(C)C(=O)NC2=CC(=O)C(NCCOC(C)C)=C(CC(C)CC(OC)C(O)C(C)C=C(C)C1OC(N)=O)C2=O (stereo not shown) [GM-W31] | 0.32 µg/mL | 0.32 µg/mL |  |
| COC1C=CC=C(C)C(=O)NC2=CC(=O)C(NCC(C)(C)CO)=C(CC(C)CC(OC)C(O)C(C)C=C(C)C1OC(N)=O)C2=O (stereo not shown) [GM-W16] | 0.064 µg/mL | 0.43 µg/mL |  |
| C=CC(C)(CCC=C(C)CCC=C(C)CCC=C(C)C)OC(=O)CCCNC1=C2CC(C)CC(OC)C(O)C(C)C=C(C)C(OC(N)=O)C(OC)C=CC=C(C)C(=O)NC(=CC1=O)C2=O (stereo not shown) [GM-W84] | 0.8 µg/mL | 1.24 µg/mL |  |
| COC1C=CC=C(C)C(=O)NC2=CC(=O)C(NCCCN(CCO)CCO)=C(CC(C)CC(OC)C(O)C(C)C=C(C)C1OC(N)=O)C2=O (stereo not shown) [GM-W43] | 0.64 µg/mL | 0.87 µg/mL |  |
| CO[C@H]1/C=C\C=C(/C)C(=O)NC2=CC(=O)C(NCC3CCCO3)=C(C[C@@H](C)C[C@H](OC)[C@H](O)[C@@H](C)/C=C(\C)[C@@H]1OC(N)=O)C2=O (stereo partly shown) [THFM-GM, 17-tetrahydrofurfurylamino-17-demethoxy geldanamycin] | 0.01 µg/mL | 0.14 µg/mL |  |
| COC1C=CC=C(C)C(=O)NC2=CC(=O)C(NCC(O)c3ccccc3)=C(CC(C)CC(OC)C(O)C(C)C=C(C)C1OC(N)=O)C2=O (stereo not shown) [GM-W36] | 0.02 µg/mL | 0.29 µg/mL |  |
| CCN1CCCC1CNC1=C2C[C@H](C)C[C@H](OC)[C@H](O)[C@@H](C)/C=C(\C)[C@@H](OC(N)=O)[C@@H](OC)/C=C/C=C(\C)C(=O)NC(=CC1=O)C2=O (stereo partly shown) [GM-228, 17-(2″-(N-ethylpyrrolidinyl)-methylamino)-17-demethoxy geldanamycin] |  | 0.009 µg/mL | 0/01 |

| Structure (SMILES) | Activity of HBV inhibition IC50 [1] | Activity of HIV inhibition IC50 [2] | Activity of HBV inhibition IC50, μg/ml [1] |
| --- | --- | --- | --- |
| COC1C=CC=C(C)C(=O)NC2=CC(=O)C(NCCc3cccnc3)=C(CC(C)CC(OC)C(O)C(C)C=C(C)C1OC(N)=O)C2=O (stereo not shown) [GM-W32] | 6.4 µg/mL | 0.48 µg/mL |  |
| COC1C=CC=C(C)C(=O)NC2=CC(=O)C(NCCCC(=O)OCC=C(C)CCC=C(C)CCC=C(C)C)=C(CC(C)CC(OC)C(O)C(C)C=C(C)C1OC(N)=O)C2=O (stereo not shown) [GM-W85] | 0.01 µg/mL | 0.78 µg/mL |  |
| COC1C=CC=C(C)C(=O)NC2=CC(=O)C(NC(c3ccccc3)c3ccccc3)=C(CC(C)CC(OC)C(O)C(C)C=C(C)C1OC(N)=O)C2=O (stereo not shown) [GM-W44] | >100 µg/mL | >60 µg/mL |  |
| COC1C=CC=C(C)C(=O)NC2=CC(=O)C(NCCN3CCOCC3)=C(CC(C)CC(OC)C(O)C(C)C=C(C)C1OC(N)=O)C2=O (stereo not shown) [GM-APML, 17-(2′-(1″-oxa-4″-azacyclohexyl-1″-)ethylamino)-17-demethoxy geldanamycin] | 0.064 µg/mL | <0.01 µg/mL |  |
| COC1C=CC=C(C)C(=O)NC2=CC(=O)C(NCCNCCO)=C(CC(C)CC(OC)C(O)C(C)C=C(C)C1OC(N)=O)C2=O (stereo not shown) [GM-W26] | 0.64 µg/mL | 0.21 µg/mL |  |
| COC1C=CC=C(C)C(=O)NC2=CC(=O)C(NCCc3ccccn3)=C(CC(C)CC(OC)C(O)C(C)C=C(C)C1OC(N)=O)C2=O (stereo not shown) [GM-W18] | 50.4 µg/mL | 33.41 µg/mL |  |
| CCCCCC(NC1=C2CC(C)CC(OC)C(O)C(C)C=C(C)C(OC(N)=O)C(OC)C=CC=C(C)C(=O)NC(=CC1=O)C2=O)P(=O)(O)O (stereo not shown) [GM-W62] | 0.89 µg/mL | 1.76 µg/mL |  |
| COC1C=CC=C(C)C(=O)NC2=CC(=O)C(NCC(O)c3ccccc3)=C(CC(C)CC(OC)C(O)C(C)C=C(C)C1OC(N)=O)C2=O (stereo not shown) [GM-W8] | 1.32 µg/mL | 1.22 µg/mL |  |
| COC1C=CC=C(C)C(=O)NC2=CC(=O)C(NC(C)Cc3c[nH]c4ccccc34)=C(CC(C)CC(OC)C(O)C(C)C=C(C)C1OC(N)=O)C2=O (stereo not shown) [GM-W89] | 2.36 µg/mL | 1.68 µg/mL |  |
| CCN1CCCC1CNC1=C2CC(C)CC(OC)C(O)C(C)C=C(C)C(OC(N)=O)C(OC)C=CC=C(C)C(=O)NC(=CC1=O)C2=O (stereo not shown) [GM-210R, 17-(2″R-2″-(N-ethylpyrrolidinyl)-methylamino)-17-demethoxy geldanamycin] | 0.064 µg/mL | 0.01 µg/mL |  |
| COC1C=CC=C(C)C(=O)NC2=CC(=O)C(NCC3CCC4CC3C4(C)C)=C(CC(C)CC(OC)C(O)C(C)C=C(C)C1OC(N)=O)C2=O (stereo not shown) [GM-MTA, 17-(myrtanylamino)-17-demethoxy geldanamycin] | 0.32 µg/mL | 0.04 µg/mL |  |
| COC1C=CC=C(C)C(=O)NC2=CC(=O)C(NCCCN3CCCCC3C)=C(CC(C)CC(OC)C(O)C(C)C=C(C)C1OC(N)=O)C2=O (stereo not shown) [GM-W47] | 3.87 µg/mL | 1.84 µg/mL |  |
| COC1C=CC=C(C)C(=O)NC2=CC(=O)C(NCC(=N)N)=C(CC(C)CC(OC)C(O)C(C)C=C(C)C1OC(N)=O)C2=O (stereo not shown) [GM-W24] | 0.01 µg/mL | 0.11 µg/mL |  |
| CCN(CCNC1=C2CC(C)CC(OC)C(O)C(C)C=C(C)C(OC(N)=O)C(OC)C=CC=C(C)C(=O)NC(=CC1=O)C2=O)c1cccc(C)c1 (stereo not shown) [GM-W30] | 5.6 µg/mL | 10.89 µg/mL |  |
| COC1C=CC=C(C)C(=O)NC2=CC(=O)C(NC(C)(C)CO)=C(CC(C)CC(OC)C(O)C(C)C=C(C)C1OC(N)=O)C2=O (stereo not shown) [GM-W7] | 8.0 µg/mL | 9.89 µg/mL |  |
| COC1C=CC=C(C)C(=O)NC2=CC(=O)C(NN3CCN(C)CC3)=C(CC(C)CC(OC)C(O)C(C)C=C(C)C1OC(N)=O)C2=O (stereo not shown) [GM-W35] | 4.36 µg/mL | 3.48 µg/mL |  |
| COC1C=CC=C(C)C(=O)NC2=CC(=O)C(NCc3ccc(C)o3)=C(CC(C)CC(OC)C(O)C(C)C=C(C)C1OC(N)=O)C2=O (stereo not shown) [GM-W88] | 0.08 µg/mL | 0.24 µg/mL |  |
